Source: ChEMBL document CHEMBL6177938, “Semisynthetic phytochemicals in cancer treatment: a medicinal chemistry perspective” (RSC Med Chem, 2024)

Experiments:
[1] = tested on: A549; assay: Cytotoxicity against human A549 cells assessed as reduction in cell growth incubated for 48 hrs by MTT assay; type: functional, cell-based; conditions: A549, 48 h
[2] = tested on: SK-BR-3; assay: Antiproliferative activity against human SK-BR-3 cells assessed as reduction in cell viability incubated for 24 hrs by alamar blue assay; type: functional, cell-based; conditions: SK-BR-3, 24 h
[3] = tested on: MOLT-4; assay: Antiproliferative activity against human MOLT-4 cells assessed as reduction in cell viability measured for 48 hrs by WST-1 assay; type: functional, cell-based; conditions: MOLT-4, 48 h
[4] = tested on: A549; assay: Antiproliferative activity against human A549 cells assessed as reduction in cell viability measured for 48 hrs by WST-1 assay; type: functional, cell-based; conditions: A549, 48 h
[5] = tested on: HeLa; assay: Antiproliferative activity against human Hela cells assessed as reduction in cell viability measured for 48 hrs by WST-1 assay; type: functional, cell-based
[6] = tested on: HT-29; assay: Antiproliferative activity against human HT-29 cells assessed as reduction in cell viability measured for 48 hrs by WST-1 assay; type: functional, cell-based; conditions: HT-29, 48 h
[7] = tested on: MCF7; assay: Antiproliferative activity against human MCF7 cells assessed as reduction in cell viability measured for 48 hrs by WST-1 assay; type: functional, cell-based; conditions: MCF7, 48 h
[8] = tested on: MCF7; assay: Cytotoxicity against human MCF7 cells assessed as reduction in cell viability incubated for 48 hrs by MTT assay; type: functional, cell-based; conditions: MCF7, 48 h
[9] = tested on: MCF7; assay: Inhibition of colony formation in human MCF7 cells at 100 microM measured after 72 hrs by crystal violet staining based analysis relative to control; type: functional
[10] = tested on: HCT-116; assay: Cytotoxicity against human HCT-116 cells assessed as reduction in cell viability incubated for 48 hrs by SRB assay; type: functional, cell-based; conditions: HCT-116, 48 h
[11] = tested on: SK-OV-3; assay: Antiproliferative activity against human SK-OV-3 cells assessed as reduction in cell viability incubated for 48 hrs by MTT assay; type: functional, cell-based; conditions: SK-OV-3, 48 h
[12] = tested on: A2780; assay: Antiproliferative activity against human A2780 cells assessed as reduction in cell viability incubated for 48 hrs by MTT assay; type: functional, cell-based; conditions: A2780, 48 h
[13] = tested on: HeLa; assay: Antiproliferative activity against human HeLa cells assessed as reduction in cell viability incubated for 72 hrs by MTT assay; type: functional, cell-based
[14] = tested on: HL-60; assay: Growth inhibition of human HL-60 cells; type: functional
[15] = tested on: Calu-3; assay: Cytotoxicity against human Calu-3 cells assessed as reduction in cell viability; type: functional, cell-based
[16] = tested on: MCF7; assay: Cytotoxicity against human MCF7 cells assessed as reduction in cell viability; type: functional, cell-based
[17] = tested on: HepG2; assay: Cytotoxicity against human HepG2 cells; type: functional, cell-based
[18] = tested on: MCF7; assay: Cytotoxicity against human MCF7 cells; type: functional, cell-based
[19] = tested on: SK-MEL-28; assay: Cytotoxicity against human SK-MEL-28 cells assessed as reduction in cell growth incubated for 24 hrs by MTT assay; type: functional
[20] = tested on: MCF7; assay: Cytotoxicity against human MCF7 cells assessed as reduction in cell growth incubated for 72 hrs by MTT assay; type: functional, cell-based; conditions: MCF7, 72 h
[21] = tested on: HL-60; assay: Cytotoxicity against human HL-60 cells assessed as reduction in cell growth incubated for 72 hrs by MTT assay; type: functional, cell-based; conditions: HL-60, 72 h
[22] = tested on: PC-3; assay: Cytotoxicity against human PC-3 cells assessed as reduction in cell growth incubated for 72 hrs by MTT assay; type: functional, cell-based; conditions: PC-3, 72 h
[23] = tested on: HepG2; assay: Cytotoxicity against human HepG2 cells assessed as reduction in cell growth incubated for 72 hrs by MTT assay; type: functional, cell-based; conditions: HepG2, 72 h
[24] = tested on: HCT-116; assay: Cytotoxicity against human HCT-116 cells assessed as reduction in cell growth incubated for 72 hrs by MTT assay; type: functional, cell-based; conditions: HCT-116, 72 h
[25] = tested on: SF-295; assay: Cytotoxicity against human SF-295 cells assessed as reduction in cell growth incubated for 72 hrs by MTT assay; type: functional, cell-based; conditions: SF-295, 72 h
[26] = tested on: HCT-116; assay: Antiproliferative activity against human HCT-116 cells assessed as reduction in cell viability incubated for 24 hrs by MTT assay; type: functional, cell-based; conditions: HCT-116, 24 h
[27] = target: Cytochrome P450 1A1 (Homo sapiens, UniProt P04798); assay: Inhibition of CYP1A1 (unknown origin) expressed in HEK293 cells; type: ADME, cell-based
[28] = Selectivity index, ratio of IC50 for inhibition of CYP1B1 (unknown origin) to IC50 for inhibition of CYP1A1 (unknown origin)
[29] = tested on: KYSE-270; assay: Cytotoxicity against human KYSE-270 cells assessed as reduction in cell viability incubated for 72 hrs by MTS assay; type: functional, cell-based; conditions: KYSE-270, 72 h
[30] = tested on: KYSE-70 cell line; assay: Cytotoxicity against human KYSE-70 cells assessed as reduction in cell viability incubated for 72 hrs by MTS assay; type: functional, cell-based; conditions: KYSE-70, 72 h
[31] = tested on: A-375; assay: Antiproliferative activity against human A-375 cells assessed as reduction in cell growth incubated for 48 hrs by MTT assay; type: functional, cell-based; conditions: A-375, 48 h
[32] = tested on: MeWo; assay: Antiproliferative activity against human MeWo cells assessed as reduction in cell growth incubated for 48 hrs by MTT assay; type: functional, cell-based

Chain of Cytochrome P450 1A1 (P04798 whole entry): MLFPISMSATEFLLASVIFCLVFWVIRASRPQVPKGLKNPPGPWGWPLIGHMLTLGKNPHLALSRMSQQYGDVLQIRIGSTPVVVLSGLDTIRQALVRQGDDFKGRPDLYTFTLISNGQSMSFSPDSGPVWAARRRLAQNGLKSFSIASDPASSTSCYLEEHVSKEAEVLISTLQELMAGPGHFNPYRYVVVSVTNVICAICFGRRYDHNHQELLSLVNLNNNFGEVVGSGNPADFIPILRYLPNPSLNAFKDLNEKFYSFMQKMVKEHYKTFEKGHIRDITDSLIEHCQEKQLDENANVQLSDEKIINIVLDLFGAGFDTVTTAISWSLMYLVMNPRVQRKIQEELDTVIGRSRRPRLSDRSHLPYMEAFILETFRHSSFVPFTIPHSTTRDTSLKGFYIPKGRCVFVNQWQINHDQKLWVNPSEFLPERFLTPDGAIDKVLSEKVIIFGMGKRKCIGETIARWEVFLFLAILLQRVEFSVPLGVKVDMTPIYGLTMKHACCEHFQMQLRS

COc1ccc(CC(=O)OCC2=CC[C@@H]3[C@](C)(CO)[C@H](O)CC[C@@]3(C)[C@@H]2/C=C/C2=CCOC2=O)cc1
IC50 [1]: 3.5 µM

COc1ccc2c(CCCc3ccc(Cl)cc3Cl)c3[n+](cc2c1OC)CCc1cc2c(cc1-3)OCO2
IC50 [2]: 6.3 µM

COc1c2c(cc3c1OCO3)[C@]13C=C[C@H](OC)C[C@H]1N(C2)C[C@H]3OC(=O)c1ccc(Cl)c([N+](=O)[O-])c1
IC50 [3]: 1.9 µM
IC50 [4]: 0.8 µM
IC50 [5]: 0.7 µM
IC50 [6]: 1.4 µM
IC50 [7]: 0.6 µM

C/C=C/c1ccc(OCc2ccc(Cl)cc2)c(OC)c1
IC50 [8]: 6.59 µM
inhibition at 100 µM [9]: 87.5%

C[C@H]1CC[C@@H]2[C@@H](OC(=O)[C@]23C[C@H]2CCCN2C32C(=O)c3ccccc3C2=O)[C@]2(C)C(=O)C=C[C@@]12O
IC50 [10]: 5 µM

CC1=C(O)C(=O)C=C2C1=CC=C1[C@@]2(C)CC[C@@]2(C)[C@@H]3C[C@](C)(C(=O)N4CCN(C(C)C)CC4)CC[C@]3(C)CC[C@]12C
IC50 [11]: 0.47 µM
IC50 [12]: 0.87 µM

CCNC(=O)CC[C@H](NC(=O)c1cc2cc(Br)ccc2oc1=O)C(=O)OCC
IC50 [13]: 250 µM

COc1cc(/C=C/c2cc(/C=C/c3ccc(O)c(OC)c3)n(-c3c(Cl)cccc3Cl)c(=O)n2)ccc1O
GI50 [14]: 2.64 µM

Cn1c2ccccc2c(=O)c2c(OCCCOc3cc4c(c5c3c(=O)c3ccccc3n5C)C=CC(C)(C)O4)cc3c(c21)C=CC(C)(C)O3
IC50 [15]: 4.49 µM
IC50 [16]: 13.2 µM

C/C(=N\NC(=O)c1ccc(O)cc1)c1ccc(NC(=O)Cn2c(=O)c3c(ncn3C)n(C)c2=O)cc1
IC50 [17]: 0.22 µM
IC50 [18]: 0.42 µM

CC(=O)OCC1=C2[C@@H](OC(C)=O)C[C@@](C)(OC(C)=O)C(=O)CC[C@@]3(C)O[C@@H]3[C@@]2(OC(C)=O)OC1=O
CC50 [19]: 3.1 µM

C[C@@H]1CC[C@H]2[C@@H](C)C(OC(=O)CCC(=O)O)O[C@@H]3O[C@@]4(C)CC[C@@H]1[C@]32OO4 (single isomer, unassigned)
IC50 [20]: 43.8 µM

CCC(=O)OCC(=O)[C@@]1(C)CC[C@H]2C(=C[C@@H]3OC(=O)[C@@]4(C)[C@@H]3[C@]23CC[C@]4(O)OC3)C1
IC50 [21]: 3.14 µM
IC50 [22]: 3.2 µM
IC50 [23]: 13.5 µM
IC50 [24]: 3.62 µM
IC50 [25]: 3.59 µM

CN1CCN(CCCOc2cc(-c3oc4cc(O)cc(O)c4c(=O)c3O)ccc2O)CC1
IC50 [26]: 0.48 µM

COc1c2occc2c(OC)c2c(=O)cc(-c3ccc(F)c(Br)c3)oc12
IC50 [27]: 0.14 µM
Ratio IC50 [28]: 170

CCCCCCCCCCCC(=O)O[C@H]1C(C)=C[C@]23C(=O)[C@@H](C=C(CO)[C@@H](O)[C@]12O)[C@H]1[C@@H](C[C@H]3C)C1(C)C
IC50 [29]: 1.88 µM
IC50 [30]: 3.58 µM

CC1(C)CC[C@]2(C(=O)N3CCOCC3)CC[C@]3(C)C(=CC[C@@H]4[C@@]5(C)CC/C(=N\OC(=O)CBr)C(C)(C)[C@@H]5CC[C@]43C)[C@@H]2C1
IC50 [31]: 100 µM
IC50 [32]: 100 µM
